Results published in ChEMBL document CHEMBL1137477, “Preparation and in vitro anti-staphylococcal activity of novel 11-deoxy-11-hydroxyiminorifamycins” (2007).
In brackets after ≈: the same amount, converted by molar mass.

Tests used:
Type in all cases: functional
Staphylococcus aureus [1] = assay: Antibacterial activity against rifamycin-sensitive Staphylococcus aureus CB190 ATCC 29213
Staphylococcus aureus [2] = assay: Antibacterial activity against rifamycin-resistance Staphylococcus aureus CB372
Staphylococcus aureus [3] = assay: Antibacterial activity against rifamycin-resistance Staphylococcus aureus CB370

**Q.** Which results are given for CO[C@H]1/C=C/O[C@@]2(C)Oc3c(C)c(O)c4c(O)c(c(/C=N/N5CCN(C)CC5)c(O)c4c3C2=O)NC(=O)/C(C)=C\C=C\[C@H](C)[C@H](O)[C@@H](C)[C@@H](O)[C@@H](C)[C@H](OC(C)=O)[C@@H]1C [RIFAMPIN]?
**A.** MIC (Staphylococcus aureus [1]): 0.008 µg/mL (≈ 0.00972 µM); MIC (Staphylococcus aureus [2]): 16 µg/mL (≈ 19.4 µM); MIC (Staphylococcus aureus [3]): > 64 µg/mL

**Q.** What does the source list for CCCCN1CCN(c2cc(O)c3nc4c5c6c7c(C)c(O)c5c(=O)c(c-4oc3c2)NC(=O)/C(C)=C\C=C\[C@H](C)[C@H](O)[C@@H](C)[C@@H](O)[C@@H](C)[C@H](OC(C)=O)[C@H](C)[C@@H](OC)/C=C/O[C@@](C)(O7)/C6=N\O)CC1?
**A.** MIC (Staphylococcus aureus [1]): 0.004 µg/mL (≈ 0.00418 µM); MIC (Staphylococcus aureus [2]): 2 µg/mL (≈ 2.09 µM); MIC (Staphylococcus aureus [3]): 16 µg/mL (≈ 16.7 µM)

**Q.** With CO[C@H]1/C=C/O[C@@]2(C)Oc3c(C)c(O)c4c(c3C2=O)C(=O)C=C(NC(=O)/C(C)=C\C=C\[C@H](C)[C@H](O)[C@@H](C)[C@@H](O)[C@@H](C)[C@H](OC(C)=O)[C@@H]1C)C4=O [RIFAMYCIN S] as the molecule, how does the MIC (Staphylococcus aureus [1]) read?
**A.** Its MIC is 0.016 µg/mL (≈ 0.023 µM).

**Q.** What about the MIC (Staphylococcus aureus [2]) of the same molecule?
**A.** The MIC was 4 µg/mL (≈ 5.75 µM).

**Q.** And the MIC (Staphylococcus aureus [3])?
**A.** Its MIC is greater than 64 µg/mL.

**Q.** CO[C@H]1/C=C/O[C@@]2(C)Oc3c(C)c(O)c4c(=O)c(c5oc6cc(N7CCN(C)CC7)cc(C)c6nc-5c4c3/C2=N/O)NC(=O)/C(C)=C\C=C\[C@H](C)[C@H](O)[C@@H](C)[C@@H](O)[C@@H](C)[C@H](OC(C)=O)[C@@H]1C was tested. Which MIC (Staphylococcus aureus [1]) did it give?
**A.** The MIC was 0.004 µg/mL (≈ 0.00439 µM).

**Q.** And the MIC (Staphylococcus aureus [2])?
**A.** The MIC was 1 µg/mL (≈ 1.1 µM).

**Q.** What about the MIC (Staphylococcus aureus [3]) of the same molecule?
**A.** Its MIC is 16 µg/mL (≈ 17.5 µM).

**Q.** CO[C@H]1/C=C/O[C@@]2(C)Oc3c(C)c(O)c4c(=O)c(c5oc6cc(N7CCN(C(C)C)CC7)cc(O)c6nc-5c4c3/C2=N/O)NC(=O)/C(C)=C\C=C\[C@H](C)[C@H](O)[C@@H](C)[C@@H](O)[C@@H](C)[C@H](OC(C)=O)[C@@H]1C was tested. Which MIC (Staphylococcus aureus [1]) did it give?
**A.** Its MIC is 0.008 µg/mL (≈ 0.00849 µM).

**Q.** What about the MIC (Staphylococcus aureus [2]) of the same molecule?
**A.** The MIC was 1 µg/mL (≈ 1.06 µM).

**Q.** And the MIC (Staphylococcus aureus [3])?
**A.** Its MIC is 32 µg/mL (≈ 34 µM).

**Q.** CO[C@H]1/C=C/O[C@@]2(C)Oc3c(C)c(O)c4c(c3/C2=N/O)C(=O)C=C(NC(=O)/C(C)=C\C=C\[C@H](C)[C@H](O)[C@@H](C)[C@@H](O)[C@@H](C)[C@H](OC(C)=O)[C@@H]1C)C4=O was tested. Which MIC (Staphylococcus aureus [1]) did it give?
**A.** The MIC was 0.002 µg/mL (≈ 0.00281 µM).

**Q.** What about the MIC (Staphylococcus aureus [2]) of the same molecule?
**A.** Its MIC is 0.5 µg/mL (≈ 0.703 µM).

**Q.** And the MIC (Staphylococcus aureus [3])?
**A.** The MIC was 32 µg/mL (≈ 45 µM).

**Q.** Which results are given for CCN1CCN(c2cc(O)c3nc4c5c6c7c(C)c(O)c5c(=O)c(c-4oc3c2)NC(=O)/C(C)=C\C=C\[C@H](C)[C@H](O)[C@@H](C)[C@@H](O)[C@@H](C)[C@H](OC(C)=O)[C@H](C)[C@@H](OC)/C=C/O[C@@](C)(O7)/C6=N\O)CC1?
**A.** MIC (Staphylococcus aureus [1]): 0.008 µg/mL (≈ 0.00862 µM); MIC (Staphylococcus aureus [2]): 2 µg/mL (≈ 2.16 µM); MIC (Staphylococcus aureus [3]): 32 µg/mL (≈ 34.5 µM)

**Q.** CO[C@H]1/C=C/O[C@@]2(C)Oc3c(C)c(O)c4c(=O)c(c5oc6cc(N7CCN(CC(C)C)CC7)cc(O)c6nc-5c4c3/C2=N/O)NC(=O)/C(C)=C\C=C\[C@H](C)[C@H](O)[C@@H](C)[C@@H](O)[C@@H](C)[C@H](OC(C)=O)[C@@H]1C was tested. Which MIC (Staphylococcus aureus [1]) did it give?
**A.** Its MIC is 0.004 µg/mL (≈ 0.00418 µM).

**Q.** What about the MIC (Staphylococcus aureus [2]) of the same molecule?
**A.** The MIC was 2 µg/mL (≈ 2.09 µM).

**Q.** And the MIC (Staphylococcus aureus [3])?
**A.** The MIC was 32 µg/mL (≈ 33.5 µM).

**Q.** What does the source list for CO[C@H]1/C=C/O[C@@]2(C)Oc3c(C)c(O)c4c(O)c(cc(O)c4c3C2=O)NC(=O)/C(C)=C\C=C\[C@H](C)[C@H](O)[C@@H](C)[C@@H](O)[C@@H](C)[C@H](OC(C)=O)[C@@H]1C [RIFAMYCIN]?
**A.** MIC (Staphylococcus aureus [1]): 0.016 µg/mL (≈ 0.0229 µM); MIC (Staphylococcus aureus [2]): 2 µg/mL (≈ 2.87 µM); MIC (Staphylococcus aureus [3]): > 64 µg/mL

**Q.** Which results are given for CO[C@H]1/C=C/O[C@@]2(C)Oc3c(C)c(O)c4c(=O)c(c5oc6cc(N7CCN(CC(C)C)CC7)ccc6nc-5c4c3/C2=N/O)NC(=O)/C(C)=C\C=C\[C@H](C)[C@H](O)[C@@H](C)[C@@H](O)[C@@H](C)[C@H](OC(C)=O)[C@@H]1C?
**A.** MIC (Staphylococcus aureus [1]): 0.004 µg/mL (≈ 0.00425 µM); MIC (Staphylococcus aureus [2]): 0.5 µg/mL (≈ 0.532 µM); MIC (Staphylococcus aureus [3]): 8 µg/mL (≈ 8.51 µM)

**Q.** For CO[C@H]1/C=C/O[C@@]2(C)Oc3c(C)c(O)c4c(=O)c(c5oc6cc(N7CCN(C(C)C)CC7)ccc6nc-5c4c3/C2=N/O)NC(=O)/C(C)=C\C=C\[C@H](C)[C@H](O)[C@@H](C)[C@@H](O)[C@@H](C)[C@H](OC(C)=O)[C@@H]1C, which MIC (Staphylococcus aureus [1]) is on record?
**A.** The MIC was 0.0005 µg/mL (≈ 0.00054 µM).

**Q.** And the MIC (Staphylococcus aureus [2])?
**A.** Its MIC is 0.12 µg/mL (≈ 0.13 µM).

**Q.** And the MIC (Staphylococcus aureus [3])?
**A.** Its MIC is 8 µg/mL (≈ 8.64 µM).

**Q.** Which results are given for CO[C@H]1/C=C/O[C@@]2(C)Oc3c(C)c(O)c4c(=O)c(c5oc6cc(N7CCN(CC(C)C)CC7)cc(C)c6nc-5c4c3/C2=N/O)NC(=O)/C(C)=C\C=C\[C@H](C)[C@H](O)[C@@H](C)[C@@H](O)[C@@H](C)[C@H](OC(C)=O)[C@@H]1C?
**A.** MIC (Staphylococcus aureus [1]): 0.008 µg/mL (≈ 0.00838 µM); MIC (Staphylococcus aureus [2]): 4 µg/mL (≈ 4.19 µM); MIC (Staphylococcus aureus [3]): > 64 µg/mL

**Q.** Which results are given for CO[C@H]1/C=C/O[C@@]2(C)Oc3c(C)c(O)c4c(=O)c(c5oc6cc(N7CCN(CC8CCCCC8)CC7)cc(O)c6nc-5c4c3/C2=N/O)NC(=O)/C(C)=C\C=C\[C@H](C)[C@H](O)[C@@H](C)[C@@H](O)[C@@H](C)[C@H](OC(C)=O)[C@@H]1C?
**A.** MIC (Staphylococcus aureus [1]): 0.008 µg/mL (≈ 0.00803 µM); MIC (Staphylococcus aureus [2]): 8 µg/mL (≈ 8.03 µM); MIC (Staphylococcus aureus [3]): 8 µg/mL (≈ 8.03 µM)

**Q.** With CO[C@H]1/C=C/O[C@@]2(C)Oc3c(C)c(O)c4c(=O)c(c5oc6cc(N7CCN(C)CC7)cc(O)c6nc-5c4c3/C2=N/O)NC(=O)/C(C)=C\C=C\[C@H](C)[C@H](O)[C@@H](C)[C@@H](O)[C@@H](C)[C@H](OC(C)=O)[C@@H]1C as the molecule, how does the MIC (Staphylococcus aureus [1]) read?
**A.** The MIC was 0.004 µg/mL (≈ 0.00438 µM).

**Q.** And the MIC (Staphylococcus aureus [2])?
**A.** The MIC was 1 µg/mL (≈ 1.09 µM).

**Q.** And the MIC (Staphylococcus aureus [3])?
**A.** The MIC was 32 µg/mL (≈ 35 µM).

**Q.** For CO[C@H]1/C=C/O[C@@]2(C)Oc3c(C)c(O)c4c(=O)c(c5oc6cc(N7CCN(CC(C)C)CC7)cc(O)c6nc-5c4c3C2=O)NC(=O)/C(C)=C\C=C\[C@H](C)[C@H](O)[C@@H](C)[C@@H](O)[C@@H](C)[C@H](OC(C)=O)[C@@H]1C [RIFALAZIL], which MIC (Staphylococcus aureus [1]) is on record?
**A.** Its MIC is 0.004 µg/mL (≈ 0.00425 µM).

**Q.** And the MIC (Staphylococcus aureus [2])?
**A.** The MIC was 2 µg/mL (≈ 2.13 µM).

**Q.** And the MIC (Staphylococcus aureus [3])?
**A.** The MIC was 32 µg/mL (≈ 34 µM).

**Q.** How did the MIC (Staphylococcus aureus [1]) turn out when CO[C@H]1/C=C/O[C@@]2(C)Oc3c(C)c(O)c4c(=O)c(c5oc6cc(N7CCN(CC8CCN(C)CC8)CC7)cc(O)c6nc-5c4c3/C2=N/O)NC(=O)/C(C)=C\C=C\[C@H](C)[C@H](O)[C@@H](C)[C@@H](O)[C@@H](C)[C@H](OC(C)=O)[C@@H]1C was run?
**A.** Its MIC is 0.13 µg/mL (≈ 0.129 µM).

**Q.** And the MIC (Staphylococcus aureus [2])?
**A.** The MIC was 4 µg/mL (≈ 3.96 µM).

**Q.** And the MIC (Staphylococcus aureus [3])?
**A.** Its MIC is 32 µg/mL (≈ 31.6 µM).

**Q.** CO[C@H]1/C=C/O[C@@]2(C)Oc3c(C)c(O)c4c(=O)c(c5oc6cc(N7CCN(CC8CCCCC8)CC7)ccc6nc-5c4c3/C2=N/O)NC(=O)/C(C)=C\C=C\[C@H](C)[C@H](O)[C@@H](C)[C@@H](O)[C@@H](C)[C@H](OC(C)=O)[C@@H]1C was tested. Which MIC (Staphylococcus aureus [1]) did it give?
**A.** The MIC was 0.008 µg/mL (≈ 0.00816 µM).

**Q.** And the MIC (Staphylococcus aureus [2])?
**A.** The MIC was 2 µg/mL (≈ 2.04 µM).

**Q.** What about the MIC (Staphylococcus aureus [3]) of the same molecule?
**A.** The MIC was 16 µg/mL (≈ 16.3 µM).
